Assay in all cases: KINOMEscan (ScanMAX) kinase profiling
Holding throughout (type): binding

In experiment [1] the target is T1, panel of 468 kinases (Homo sapiens, UniProt P78362).
T1 construct: purchased KINOMEscan (ScanMAX) service
The conditions noted are these: SRPK2; 1 μM; read-out: % control.

For experiment [2], the target named is T2, panel of 468 kinases (Homo sapiens, UniProt P53778).
T2 construct: purchased KINOMEscan (ScanMAX) service
T2 sequence (P53778 1-367): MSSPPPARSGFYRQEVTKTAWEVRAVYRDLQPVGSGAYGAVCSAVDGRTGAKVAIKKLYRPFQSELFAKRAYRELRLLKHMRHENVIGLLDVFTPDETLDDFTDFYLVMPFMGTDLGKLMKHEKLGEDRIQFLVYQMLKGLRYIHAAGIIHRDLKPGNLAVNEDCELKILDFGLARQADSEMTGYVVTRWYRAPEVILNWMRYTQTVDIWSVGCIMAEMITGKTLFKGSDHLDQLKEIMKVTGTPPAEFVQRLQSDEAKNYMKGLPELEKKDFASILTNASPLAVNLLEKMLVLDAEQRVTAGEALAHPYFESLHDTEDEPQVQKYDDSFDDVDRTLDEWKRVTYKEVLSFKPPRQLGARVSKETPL
The conditions noted are these: p38-gamma; 1 μM; read-out: % control.

Experiment [3] has as its target T3, panel of 468 kinases (Homo sapiens, UniProt Q08881).
T3 construct: purchased KINOMEscan (ScanMAX) service
T3 sequence (Q08881 1-620): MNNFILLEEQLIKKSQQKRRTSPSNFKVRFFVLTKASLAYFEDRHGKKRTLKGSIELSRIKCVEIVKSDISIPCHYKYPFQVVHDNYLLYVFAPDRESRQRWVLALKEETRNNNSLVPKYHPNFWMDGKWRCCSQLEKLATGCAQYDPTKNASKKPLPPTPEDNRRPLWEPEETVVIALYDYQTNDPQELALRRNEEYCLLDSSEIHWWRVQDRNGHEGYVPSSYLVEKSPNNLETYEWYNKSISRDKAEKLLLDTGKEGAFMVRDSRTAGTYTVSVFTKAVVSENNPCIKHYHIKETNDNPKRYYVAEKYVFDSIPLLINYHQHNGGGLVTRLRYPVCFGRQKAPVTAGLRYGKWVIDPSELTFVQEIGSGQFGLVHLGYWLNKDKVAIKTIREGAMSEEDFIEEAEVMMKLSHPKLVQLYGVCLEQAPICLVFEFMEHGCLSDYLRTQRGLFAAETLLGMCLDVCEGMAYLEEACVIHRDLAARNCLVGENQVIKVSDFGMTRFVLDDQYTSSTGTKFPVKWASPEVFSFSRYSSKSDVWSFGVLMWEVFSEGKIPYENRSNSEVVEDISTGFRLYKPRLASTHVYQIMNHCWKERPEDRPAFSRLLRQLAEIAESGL
The conditions noted are these: ITK; 1 μM; read-out: % control.

The target in experiment [4] is T4, panel of 468 kinases (Homo sapiens, UniProt Q13557).
T4 construct: purchased KINOMEscan (ScanMAX) service
T4 sequence (Q13557 whole entry): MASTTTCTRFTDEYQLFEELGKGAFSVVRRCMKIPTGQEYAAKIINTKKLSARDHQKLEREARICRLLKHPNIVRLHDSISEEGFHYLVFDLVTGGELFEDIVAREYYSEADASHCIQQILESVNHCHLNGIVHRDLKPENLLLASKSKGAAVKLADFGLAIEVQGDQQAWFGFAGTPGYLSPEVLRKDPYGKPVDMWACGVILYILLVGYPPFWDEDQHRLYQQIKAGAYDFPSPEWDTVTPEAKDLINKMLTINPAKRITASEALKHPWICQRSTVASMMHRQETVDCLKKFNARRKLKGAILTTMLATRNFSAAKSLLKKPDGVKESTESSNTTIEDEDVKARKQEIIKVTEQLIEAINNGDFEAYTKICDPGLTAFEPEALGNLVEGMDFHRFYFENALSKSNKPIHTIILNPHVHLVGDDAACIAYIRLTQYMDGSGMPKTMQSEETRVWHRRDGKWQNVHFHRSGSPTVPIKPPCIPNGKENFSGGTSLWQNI
The conditions noted are these: CAMK2D; 1 μM; read-out: % control.

Experiment [5] has as its target T5, panel of 468 kinases (Homo sapiens, UniProt O95819).
T5 construct: purchased KINOMEscan (ScanMAX) service
The conditions noted are these: MAP4K4; 1 μM; read-out: % control.

Experiment [6] has as its target T6, panel of 468 kinases (Homo sapiens, UniProt Q00537).
T6 construct: purchased KINOMEscan (ScanMAX) service
The conditions noted are these: PCTK2; 1 μM; read-out: % control.

Experiment [7] has as its target T7, panel of 468 kinases (Homo sapiens, UniProt Q99759).
T7 construct: purchased KINOMEscan (ScanMAX) service
T7 sequence (Q99759 1-626): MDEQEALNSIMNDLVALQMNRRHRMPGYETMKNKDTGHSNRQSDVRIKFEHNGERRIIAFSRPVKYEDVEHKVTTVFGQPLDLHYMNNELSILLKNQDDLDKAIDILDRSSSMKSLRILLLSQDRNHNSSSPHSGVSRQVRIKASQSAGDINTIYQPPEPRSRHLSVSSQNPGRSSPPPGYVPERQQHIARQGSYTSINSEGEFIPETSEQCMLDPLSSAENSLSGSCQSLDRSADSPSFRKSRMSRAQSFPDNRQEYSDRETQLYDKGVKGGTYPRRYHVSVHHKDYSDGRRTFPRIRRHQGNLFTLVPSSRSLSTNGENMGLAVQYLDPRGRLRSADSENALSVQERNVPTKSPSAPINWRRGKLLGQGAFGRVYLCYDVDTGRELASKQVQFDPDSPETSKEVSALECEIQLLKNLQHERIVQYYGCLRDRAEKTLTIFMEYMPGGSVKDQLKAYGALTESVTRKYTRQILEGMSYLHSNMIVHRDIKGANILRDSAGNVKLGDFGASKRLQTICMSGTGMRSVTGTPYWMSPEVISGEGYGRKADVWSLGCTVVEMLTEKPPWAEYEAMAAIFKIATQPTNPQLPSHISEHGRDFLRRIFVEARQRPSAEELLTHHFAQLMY
The conditions noted are these: MAP3K3; 1 μM; read-out: % control.

T1 sequence (P78362 whole entry): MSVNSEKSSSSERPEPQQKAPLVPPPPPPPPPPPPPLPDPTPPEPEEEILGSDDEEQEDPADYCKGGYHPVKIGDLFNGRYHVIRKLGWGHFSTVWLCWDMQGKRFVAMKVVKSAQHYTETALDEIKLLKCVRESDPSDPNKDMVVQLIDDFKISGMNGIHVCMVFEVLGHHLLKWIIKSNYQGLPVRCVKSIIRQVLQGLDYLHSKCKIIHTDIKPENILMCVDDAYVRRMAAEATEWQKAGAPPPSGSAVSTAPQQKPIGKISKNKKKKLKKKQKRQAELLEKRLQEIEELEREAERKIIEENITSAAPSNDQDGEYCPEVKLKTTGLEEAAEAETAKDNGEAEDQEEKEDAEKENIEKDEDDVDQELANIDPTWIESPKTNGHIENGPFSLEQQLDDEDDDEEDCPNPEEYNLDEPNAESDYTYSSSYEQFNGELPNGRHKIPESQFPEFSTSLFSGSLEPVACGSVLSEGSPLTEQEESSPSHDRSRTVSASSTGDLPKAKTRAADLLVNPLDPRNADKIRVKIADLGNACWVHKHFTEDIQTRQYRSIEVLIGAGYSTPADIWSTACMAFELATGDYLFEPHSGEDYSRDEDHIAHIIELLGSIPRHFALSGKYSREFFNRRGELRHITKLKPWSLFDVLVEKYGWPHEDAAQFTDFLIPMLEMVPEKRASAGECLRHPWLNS
T5 sequence (O95819 whole entry): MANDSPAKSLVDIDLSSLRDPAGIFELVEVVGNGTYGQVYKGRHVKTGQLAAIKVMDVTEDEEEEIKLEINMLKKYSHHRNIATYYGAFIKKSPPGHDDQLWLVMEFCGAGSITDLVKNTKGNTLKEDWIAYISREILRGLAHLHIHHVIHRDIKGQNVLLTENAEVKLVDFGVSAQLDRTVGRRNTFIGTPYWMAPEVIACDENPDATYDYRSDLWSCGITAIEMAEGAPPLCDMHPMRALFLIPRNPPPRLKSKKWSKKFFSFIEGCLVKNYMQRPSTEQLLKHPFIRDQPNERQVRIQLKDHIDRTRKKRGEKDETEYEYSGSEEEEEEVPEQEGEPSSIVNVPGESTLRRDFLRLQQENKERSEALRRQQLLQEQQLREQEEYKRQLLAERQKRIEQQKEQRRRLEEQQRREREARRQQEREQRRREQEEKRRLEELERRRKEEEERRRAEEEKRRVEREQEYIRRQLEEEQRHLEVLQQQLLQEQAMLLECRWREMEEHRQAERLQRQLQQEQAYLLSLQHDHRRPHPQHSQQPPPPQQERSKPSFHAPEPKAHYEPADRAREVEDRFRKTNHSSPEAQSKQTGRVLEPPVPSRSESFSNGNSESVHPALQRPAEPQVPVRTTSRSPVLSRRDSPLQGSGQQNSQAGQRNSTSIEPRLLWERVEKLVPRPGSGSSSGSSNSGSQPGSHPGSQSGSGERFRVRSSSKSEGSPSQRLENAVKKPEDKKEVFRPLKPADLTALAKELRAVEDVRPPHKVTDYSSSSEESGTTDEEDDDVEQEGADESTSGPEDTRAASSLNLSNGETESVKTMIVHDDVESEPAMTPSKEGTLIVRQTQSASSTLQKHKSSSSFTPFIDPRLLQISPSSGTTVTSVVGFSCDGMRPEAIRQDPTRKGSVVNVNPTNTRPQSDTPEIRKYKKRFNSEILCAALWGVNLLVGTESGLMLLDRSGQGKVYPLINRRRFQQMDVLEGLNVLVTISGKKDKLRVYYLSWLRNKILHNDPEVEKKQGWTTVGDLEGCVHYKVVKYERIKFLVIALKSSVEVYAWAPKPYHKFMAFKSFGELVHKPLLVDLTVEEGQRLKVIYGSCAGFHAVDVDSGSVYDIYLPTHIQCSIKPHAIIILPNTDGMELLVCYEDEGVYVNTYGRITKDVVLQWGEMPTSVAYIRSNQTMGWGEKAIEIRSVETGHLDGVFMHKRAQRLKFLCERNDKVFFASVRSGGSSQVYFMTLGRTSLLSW
T6 sequence (Q00537 whole entry): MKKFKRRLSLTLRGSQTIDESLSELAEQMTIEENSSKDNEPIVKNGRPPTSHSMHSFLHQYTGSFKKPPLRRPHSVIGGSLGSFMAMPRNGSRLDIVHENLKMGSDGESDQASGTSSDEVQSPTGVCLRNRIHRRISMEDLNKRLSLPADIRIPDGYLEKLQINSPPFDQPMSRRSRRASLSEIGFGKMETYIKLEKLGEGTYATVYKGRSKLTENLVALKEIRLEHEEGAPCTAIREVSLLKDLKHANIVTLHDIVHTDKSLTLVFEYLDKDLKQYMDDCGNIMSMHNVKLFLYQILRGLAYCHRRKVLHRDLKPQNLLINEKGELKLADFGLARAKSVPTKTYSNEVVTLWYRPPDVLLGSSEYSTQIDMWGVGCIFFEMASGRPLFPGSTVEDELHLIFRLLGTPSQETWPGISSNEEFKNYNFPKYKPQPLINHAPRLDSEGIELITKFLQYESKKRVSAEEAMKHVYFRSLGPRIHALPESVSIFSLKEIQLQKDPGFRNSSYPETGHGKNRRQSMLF

In the case of `CNc1nc(Nc2ccc(C(=O)N3CCC(N4CCOCC4)CC3)c3c2OCO3)nc2[nH]cc(Cl)c12` [Compound 75, (7-((5-chloro-4-(methylamino)-7H-pyrrolo[2,3-d]pyrimidin-2-yl)amino)benzo[d][1,3]dioxol-4-yl)(4-morpholinopiperidin-1-yl)methanone], the remaining binding at 1 µM on panel of 468 kinases [1] turned out to be 95%; on panel of 468 kinases [2], 91%; at panel of 468 kinases [3], 100%; at panel of 468 kinases [4], 89%; on panel of 468 kinases [5], 54%; on panel of 468 kinases [6] it was 100%. Moreover, the remaining binding at 1 µM at panel of 468 kinases [7] is 43%.
As to `CNc1nc(Nc2ccc(P3(=O)CCN(C4CCOCC4)CC3)cc2OC)nc2[nH]cc(Cl)c12` [Compound 77, 4-(4-((5-chloro-4-(methylamino)-7H-pyrrolo[2,3-d]pyrimidin-2-yl)amino)-3-methoxyphenyl)-1-(tetrahydro-2H-pyran-4-yl)-1,4-azaphosphinane 4-oxide], the remaining binding at 1 µM is 84% on panel of 468 kinases [1]; 98% at panel of 468 kinases [2]; 97% at panel of 468 kinases [3]; 89% at panel of 468 kinases [4]; 100% at panel of 468 kinases [5]; 100% on panel of 468 kinases [6]. In addition, on panel of 468 kinases [7], the remaining binding at 1 µM was 100%.
In the case of `CNc1nc(Nc2ccc(S(=O)(=O)N3CCC(N4CCOCC4)CC3)cc2OC)nc2[nH]cc(Cl)c12` [Compound 12, 5-chloro-N2-(2-methoxy-4-((4-morpholinopiperidin-1-yl)sulfonyl)phenyl)-N4-methyl-7H-pyrrolo[2,3-d]pyrimidine-2,4-diamine], the remaining binding at 1 µM turned out to be 100% at panel of 468 kinases [1]; 100% on panel of 468 kinases [2]; 92% at panel of 468 kinases [3]; 96% on panel of 468 kinases [4]; 95% at panel of 468 kinases [5]; 100% at panel of 468 kinases [6]. The remaining binding at 1 µM on panel of 468 kinases [7] amounted to 100%.

Source of the values: US12479847B2 (DANA-FARBER CANCER INSTITUTE, INC., priority 2019, dated 2025).
